# Active and inactive are the calls of the source. The rule behind the calls is not given here.
# Experiments:
# [1] = target: T1, Amine oxidase [flavin-containing] A (Homo sapiens, UniProt P21397); assay: Inhibition of recombinant human MAO-A expressed in baculovirus infected BTI insect cells at 10 uM preincubated for 30 mins followed by addition of p-tyramine as substrate measured over 45 mins by Amplex Red MAO assay relative to control; conditions: 0.75 h
# T1 sequence (P21397 whole entry): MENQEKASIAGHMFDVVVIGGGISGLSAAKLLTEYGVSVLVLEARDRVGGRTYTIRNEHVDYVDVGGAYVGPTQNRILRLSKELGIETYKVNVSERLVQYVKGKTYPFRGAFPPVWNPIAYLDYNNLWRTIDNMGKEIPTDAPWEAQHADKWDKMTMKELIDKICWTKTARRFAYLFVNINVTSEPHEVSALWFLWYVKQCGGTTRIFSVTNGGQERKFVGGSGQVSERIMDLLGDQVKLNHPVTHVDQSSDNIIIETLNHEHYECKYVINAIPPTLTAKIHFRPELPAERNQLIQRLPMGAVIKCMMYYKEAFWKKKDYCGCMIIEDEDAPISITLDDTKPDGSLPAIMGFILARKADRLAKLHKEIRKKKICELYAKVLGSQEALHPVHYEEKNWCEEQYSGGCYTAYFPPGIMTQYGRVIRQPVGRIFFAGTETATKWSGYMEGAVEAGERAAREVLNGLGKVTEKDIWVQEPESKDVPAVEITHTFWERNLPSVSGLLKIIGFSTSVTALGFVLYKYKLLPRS
# Adenosine receptor A2a [2] = target: T2, Adenosine receptor A2a (Homo sapiens, UniProt P29274); assay: Displacement of [3H]MSX from human A2A receptor by liquid scintillation counting method
# T2 sequence (P29274 whole entry): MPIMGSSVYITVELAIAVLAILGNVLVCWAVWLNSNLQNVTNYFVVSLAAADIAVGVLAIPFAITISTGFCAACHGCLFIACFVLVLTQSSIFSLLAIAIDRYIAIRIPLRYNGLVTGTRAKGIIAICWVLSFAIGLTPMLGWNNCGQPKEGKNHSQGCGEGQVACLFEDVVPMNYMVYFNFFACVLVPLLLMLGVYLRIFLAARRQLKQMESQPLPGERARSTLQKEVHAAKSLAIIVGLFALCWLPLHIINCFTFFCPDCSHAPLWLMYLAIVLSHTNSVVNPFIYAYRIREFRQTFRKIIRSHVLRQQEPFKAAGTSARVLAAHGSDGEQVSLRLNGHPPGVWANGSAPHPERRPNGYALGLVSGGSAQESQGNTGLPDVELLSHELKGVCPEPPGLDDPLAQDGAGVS
# Adenosine receptor A3 = target: T3, Adenosine receptor A3 (Homo sapiens, UniProt P0DMS8); assay: Displacement of [3H]PSB-11 from human A3 receptor expressed in CHO cell membrane by liquid scintillation counting method relative to control; assay type: cell membranes
# T3 sequence (P0DMS8 whole entry): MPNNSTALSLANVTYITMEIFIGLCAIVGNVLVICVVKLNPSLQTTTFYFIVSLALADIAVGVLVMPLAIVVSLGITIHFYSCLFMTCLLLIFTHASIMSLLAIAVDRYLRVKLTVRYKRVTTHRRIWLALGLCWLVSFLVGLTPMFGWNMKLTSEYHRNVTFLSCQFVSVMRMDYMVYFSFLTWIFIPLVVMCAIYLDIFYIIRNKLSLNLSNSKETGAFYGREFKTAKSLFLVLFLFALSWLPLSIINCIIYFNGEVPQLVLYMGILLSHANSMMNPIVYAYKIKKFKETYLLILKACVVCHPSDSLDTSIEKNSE
# [3] = target: T4, Amine oxidase [flavin-containing] B (Homo sapiens, UniProt P27338); assay: Inhibition of recombinant human MAO-B expressed in baculovirus infected BTI insect cells preincubated for 30 mins followed by addition of p-tyramine as substrate measured over 45 mins by Amplex Red MAO assay
# T4 sequence (P27338 whole entry): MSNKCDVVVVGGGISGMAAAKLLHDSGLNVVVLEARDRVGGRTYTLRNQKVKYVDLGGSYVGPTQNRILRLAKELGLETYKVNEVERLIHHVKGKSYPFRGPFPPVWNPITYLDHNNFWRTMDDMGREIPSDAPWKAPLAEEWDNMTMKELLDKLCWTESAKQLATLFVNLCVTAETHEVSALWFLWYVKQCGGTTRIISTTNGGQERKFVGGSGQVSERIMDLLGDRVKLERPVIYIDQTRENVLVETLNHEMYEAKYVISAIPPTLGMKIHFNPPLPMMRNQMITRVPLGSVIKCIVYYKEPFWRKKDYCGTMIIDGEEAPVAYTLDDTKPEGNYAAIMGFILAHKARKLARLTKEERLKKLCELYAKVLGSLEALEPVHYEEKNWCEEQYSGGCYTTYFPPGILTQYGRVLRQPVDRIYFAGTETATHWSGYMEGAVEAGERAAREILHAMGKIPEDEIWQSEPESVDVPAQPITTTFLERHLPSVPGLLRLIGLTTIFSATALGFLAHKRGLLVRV
# [4] = target: T5, Adenosine receptor A2b (Homo sapiens) (UniProt P29275); assay: Displacement of [3H]PSB-603 from human A2B receptor expressed in CHO cell membrane measured after 75 mins by liquid scintillation counting method relative to control; assay type: cell membranes
# T5 sequence (whole entry): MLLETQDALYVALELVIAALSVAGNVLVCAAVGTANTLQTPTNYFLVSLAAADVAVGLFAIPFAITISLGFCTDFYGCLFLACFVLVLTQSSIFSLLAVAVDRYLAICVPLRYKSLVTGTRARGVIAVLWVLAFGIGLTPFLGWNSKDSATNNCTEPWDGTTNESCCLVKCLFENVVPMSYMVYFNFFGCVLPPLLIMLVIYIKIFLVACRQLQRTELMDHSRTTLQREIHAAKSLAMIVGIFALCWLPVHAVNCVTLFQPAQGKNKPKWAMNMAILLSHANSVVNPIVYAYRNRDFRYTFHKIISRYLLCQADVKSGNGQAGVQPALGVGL
# Adenosine receptor A1 [5] = target: T6, Adenosine receptor A1 (Homo sapiens, UniProt P30542); assay: Displacement of [3H]CCPA from human A1 receptor expressed in CHO cell membrane by liquid scintillation counting method; assay type: cell membranes
# T6 sequence (P30542 whole entry): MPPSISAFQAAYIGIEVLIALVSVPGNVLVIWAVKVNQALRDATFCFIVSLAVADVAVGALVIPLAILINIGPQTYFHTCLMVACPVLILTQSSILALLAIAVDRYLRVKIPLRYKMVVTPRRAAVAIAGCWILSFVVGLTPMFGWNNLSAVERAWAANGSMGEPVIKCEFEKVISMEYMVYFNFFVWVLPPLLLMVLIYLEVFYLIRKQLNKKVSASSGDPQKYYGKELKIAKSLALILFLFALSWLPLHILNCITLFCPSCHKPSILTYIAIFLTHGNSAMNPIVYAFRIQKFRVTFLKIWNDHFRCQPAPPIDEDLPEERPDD
# Adenosine receptor A2b [6] = target: T7, Adenosine receptor A2b (Homo sapiens, UniProt P29275); assay: Displacement of [3H]PSB-603 from human A2B receptor expressed in CHO cell membrane measured after 75 mins by liquid scintillation counting method; assay type: cell membranes
# T7 sequence (P29275 whole entry): T5 sequence (whole entry)
# Adenosine receptor A1 [7] = target: T8, Adenosine receptor A1 (Rattus norvegicus, UniProt P25099); assay: Displacement of [3H]MSX from rat A1 receptor measured after 75 mins by liquid scintillation counting method
# T8 sequence (P25099 whole entry): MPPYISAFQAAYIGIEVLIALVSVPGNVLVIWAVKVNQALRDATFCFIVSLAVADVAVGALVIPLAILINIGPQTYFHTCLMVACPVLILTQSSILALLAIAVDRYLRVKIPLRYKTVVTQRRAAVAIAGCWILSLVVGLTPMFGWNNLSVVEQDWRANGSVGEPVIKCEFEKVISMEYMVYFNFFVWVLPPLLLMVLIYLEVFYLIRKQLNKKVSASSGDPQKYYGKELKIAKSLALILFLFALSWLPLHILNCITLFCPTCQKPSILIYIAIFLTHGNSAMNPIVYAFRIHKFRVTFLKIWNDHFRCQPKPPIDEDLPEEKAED
# [8] = target: T9, Adenosine receptor A3 (Homo sapiens) (UniProt P0DMS8); assay: Displacement of [3H]PSB-11 from human A3 receptor expressed in CHO cell membrane at 1 uM by liquid scintillation counting method relative to control relative to control; assay type: cell membranes
# T9 sequence (whole entry): T3 sequence (P0DMS8 whole entry)
# Adenosine receptor A1 [9] = target: T8, Adenosine receptor A1; assay: Displacement of [3H]CCPA from rat A1 receptor by liquid scintillation counting method
# [10] = target: T1, Amine oxidase [flavin-containing] A; assay: Inhibition of recombinant human MAO-A expressed in baculovirus infected BTI insect cells preincubated for 30 mins followed by addition of p-tyramine as substrate measured over 45 mins by Amplex Red MAO assay
# [11] = target: T4, Amine oxidase [flavin-containing] B; assay: Inhibition of recombinant human MAO-B expressed in baculovirus infected BTI insect cells at 10 uM preincubated for 30 mins followed by addition of p-tyramine as substrate measured over 45 mins by Amplex Red MAO assay relative to control; conditions: 0.75 h
# Homo sapiens = species: Homo sapiens; assay: Selectivity ratio, ratio of Ki for human A2A receptor to Ki for human A1 receptor
# [12] = target: T5, Adenosine receptor A2b (Homo sapiens); assay: Displacement of [3H]PSB-603 from human A2B receptor expressed in CHO cell membrane at 1 uM relative to control; assay type: cell membranes
# Adenosine receptor A2a [13] = target: T2, Adenosine receptor A2a; assay: Agonist activity at recombinant human A2A receptor expressed in CHO cells assessed as increase in forskolin-induced cAMP level at 10 uM preincubated for 20 mins prior to forskolin-stimulation measure after 5 mins by liquid scintillation counting method; assay type: functional, cell-based
# Adenosine receptor A2a [14] = target: Adenosine receptor A2a (Rattus norvegicus, UniProt P30543); assay: Displacement of [3H]MSX from A2A receptor in rat brain striatum membranes measured after 30 mins by liquid scintillation counting method; assay type: cell membranes
# Adenosine receptor A2a (Rattus norvegicus, UniProt P30543), sequence (P30543 whole entry): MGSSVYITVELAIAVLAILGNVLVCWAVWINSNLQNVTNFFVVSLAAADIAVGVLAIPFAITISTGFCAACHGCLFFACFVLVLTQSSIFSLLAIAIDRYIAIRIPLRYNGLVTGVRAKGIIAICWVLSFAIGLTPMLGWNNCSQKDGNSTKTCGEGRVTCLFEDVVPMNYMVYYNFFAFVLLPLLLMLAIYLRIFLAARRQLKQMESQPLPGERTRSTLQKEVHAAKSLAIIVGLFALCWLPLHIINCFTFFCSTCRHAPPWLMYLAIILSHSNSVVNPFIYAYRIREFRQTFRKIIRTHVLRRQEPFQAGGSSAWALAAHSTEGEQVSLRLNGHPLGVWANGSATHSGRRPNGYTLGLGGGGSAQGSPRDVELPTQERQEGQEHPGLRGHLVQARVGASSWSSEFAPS
# [15] = target: T10, Adenosine receptor A1 (Homo sapiens) (UniProt P30542); assay: Agonist activity at recombinant human A1 receptor expressed in CHO cells assessed as inhibition of forskolin-induced cAMP accumulation at 1 uM preincubated for 20 mins prior to forskolin-stimulation measure after 5 mins by liquid scintillation counting method; assay type: functional, cell-based
# T10 sequence (whole entry): T6 sequence (P30542 whole entry)
# Adenosine receptor A2a [16] = target: T2, Adenosine receptor A2a; assay: Displacement of [3H]MSX from human A2A receptor measured after 30 mins by liquid scintillation counting method
# Adenosine receptor A1 [17] = target: T8, Adenosine receptor A1; assay: Displacement of [3H]CCPA from A1 receptor in rat brain cortex membranes by liquid scintillation counting method; assay type: cell membranes
# [18] = target: T10, Adenosine receptor A1 (Homo sapiens); assay: Agonist activity at recombinant human A1 receptor expressed in CHO cells assessed as inhibition of forskolin-induced cAMP accumulation at 10 uM preincubated for 20 mins prior to forskolin-stimulation measure after 5 mins by liquid scintillation counting method; assay type: functional, cell-based
# Adenosine receptor A2a [19] = target: T2, Adenosine receptor A2a; assay: Agonist activity at recombinant human A2A receptor expressed in CHO cells assessed as increase in forskolin-induced cAMP level at 1 uM preincubated for 20 mins prior to forskolin-stimulation measure after 5 mins by liquid scintillation counting method; assay type: functional, cell-based
# [20] = target: T9, Adenosine receptor A3 (Homo sapiens); assay: Displacement of [3H]PSB-11 from human A3 receptor expressed in CHO cell membrane at 10 uM by liquid scintillation counting method relative to control relative to control; assay type: cell membranes
# [21] = Thermodynamic solubility of the compound at pH 7.4; assay type: physicochemical; conditions: buffer, read-out: Therm_solubility
# Adenosine receptor A2b [22] = target: T7, Adenosine receptor A2b; assay: Displacement of [3H]PSB-603 from human A2B receptor expressed in CHO cell membrane; assay type: cell membranes
# [23] = target: Adenosine receptor A2a (Rattus norvegicus) (UniProt P30543); assay: Displacement of [3H]MSX from A2A receptor in rat brain striatum membranes at 1 uM measured after 30 mins by liquid scintillation counting method relative to control; assay type: cell membranes
# Adenosine receptor A2a (Rattus norvegicus), sequence (P30543 whole entry): as above
# [24] = target: T11, Adenosine receptor A1 (Rattus norvegicus) (UniProt P25099); assay: Displacement of [3H]CCPA from A1 receptor in rat brain cortex membranes at 1.5 uM by liquid scintillation counting method; assay type: cell membranes
# T11 sequence (whole entry): T8 sequence (P25099 whole entry)
# [25] = target: T5, Adenosine receptor A2b (Homo sapiens); assay: Displacement of [3H]PSB-603 from human A2B receptor expressed in CHO cell membrane at […] relative to control; assay type: cell membranes
Structure (SMILES),inhibition at 10 µM [1],Ki (Adenosine receptor A2a [2]),Ki (Adenosine receptor A3),IC50 [3],Activity [4],Ki (Adenosine receptor A1 [5]),Ki (Adenosine receptor A2b [6]),Ki (Adenosine receptor A1 [7]),Activity [8],Ki (Adenosine receptor A1 [9]),IC50 [10],inhibition at 10 µM [11],Activity [12],Ki (Adenosine receptor A2a [14]),Ki (Adenosine receptor A1 [17]),Activity [20],Ki (Adenosine receptor A2b [22]),Activity [23],Activity [24],further results
Cn1c(=O)c2c(nc3n2CCN(Cc2ccc(Cl)c(Cl)c2)C3)n(C)c1=O,5%,1510 nM,> 1000 nM,197 nM,15%,791 nM,> 1000 nM,322 nM,13%,351 nM,> 10000 nM,,,,,,,,,
Cn1c(=O)c2c(nc3n2CCN(CCCc2ccc(Cl)cc2)C3)n(C)c1=O,12%,,> 10000 nM,> 10000 nM,,65.5 nM,,,,,> 10000 nM,44%,7%,316 nM,352 nM,34%,> 1000 nM,,,Ratio Ki (Homo sapiens): 4; Activity (Adenosine receptor A2a [13]): inactive; Activity [15]: inactive; Ki (Adenosine receptor A2a [16]): 230 nM; Activity [18]: inactive; Activity (Adenosine receptor A2a [19]): inactive; solubility thermodynamic [21]: 4 µg/mL
Cn1c(=O)c2c(nc3n2CCN(Cc2ccccc2)C3)n(C)c1=O,,1060 nM,> 10000 nM,> 10000 nM,15%,265 nM,> 1000 nM,598 nM,,79.3 nM,,36%,,,,21%,,,,
Cn1c(=O)c2c(nc3n2CCN(c2ccc(Cl)cc2)C3)n(C)c1=O,,,> 1000 nM,> 10000 nM,,,,,2%,,,15%,9%,> 10000 nM,> 1500 nM,,> 1000 nM,34%,1%,
Cn1c(=O)c2c(nc3n2CCN(Cc2nocc2-c2ccccc2)C3)n(C)c1=O,,,8720 nM,> 10000 nM,,,,,,,,39%,,> 1000 nM,> 1500 nM,,,5%,21%,inhibition [25]: 18%

# — ChEMBL document CHEMBL4428125, “8-Substituted 1,3-dimethyltetrahydropyrazino[2,1-f]purinediones: Water-soluble adenosine receptor antagonists and monoamine oxidase B inhibitors” (Bioorg Med Chem, 2016)
